Read-outs that look alike come from different tables or passages of the source.
Experiments:
MTAN = MTAN (Escherichia coli, UniProt P0AF12); assay: Enzyme inhibition assay, MTAN (slow-onset inhibition constants); format: biochemical; settings: MTAN
Protocol: (§1) Ki as shown in Tables 1 and 2 is the initial inhibition constant formed by the enzyme-inhibitor complex, and Ki* is the equilibrium dissociation constant for inhibition that is observed following a period of slow-onset, tight binding inhibition. Ki* is the biologically effective constant.
(§2) Enzyme assays were conducted to assess the effectiveness of selected compounds of the invention as inhibitors of MTAP and MTAN.
(§3) Inhibitors.—Inhibitor concentrations were determined by the UV absorbance spectrum using the published millimolar extinction coefficients for 9-dazadenine of 8.5 at 275 nm at pH 7.0.
(§4) Assays.—The direct spectrophotometric assay for the conversion of MTA into adenine was measured as the decrease in absorbance at 274 nm. At 274 nm, Δε between MTA and adenine is at a maximum and produces a spectral change of 1.6 absorbance units/cm/mM (DeWolf, W. E. Jr., Fullin, F. A., and Schramm, V. L. (1979) J. Biol. Chem. 254, 10868–10875)
(§5) Slow-Onset Inhibition and Inhibition Constants.—The kinetics for slow onset inhibition and the Ki measurement was carried out by adding a known concentration of enzyme (1–5 nM) to a reaction mixture containing a substrate concentration of 200 μM. This concentration corresponds to an OD of 0.7–1.1 at […]. The formation of product was monitored as a decrease in absorbance at 274 nm. Conditions for Ki* determination used high concentrations of substrate. Two controls, one having no inhibitor and the other no enzyme were included in the experiment. The Ki values MTAP for the various compounds were calculated by fitting in the ratio of initial rates in the presence of inhibitor to without any inhibitor versus the inhibitor concentration, for the known Km and substrate concentration into the following expression.
(§6) Where Vo′ is the rate in the presence of inhibitor • Vo rate in the absence of inhibitor • [I] inhibitor concentration • And [S] is the substrate concentration
(§7) And the Ki* was calculated by fitting to the following expression
(§8) Where Vs′ is the steady-state rate following attainment of equilibrium in the presence inhibitor, and Vs is the steady-state rate in the control having no inhibitor. Both these equations are valid for competitive type inhibition.

human MTAP = molecular target: T1, human MTAP (Homo sapiens, UniProt Q13126); assay: Enzyme inhibition assay, MTAP (slow-onset inhibition constants); format: biochemical
T1 construct: inferred from pQE32 vector and Ni-NTA purification) (N); made in house; host or cells: E. coli
T1 sequence (Q13126 1-283): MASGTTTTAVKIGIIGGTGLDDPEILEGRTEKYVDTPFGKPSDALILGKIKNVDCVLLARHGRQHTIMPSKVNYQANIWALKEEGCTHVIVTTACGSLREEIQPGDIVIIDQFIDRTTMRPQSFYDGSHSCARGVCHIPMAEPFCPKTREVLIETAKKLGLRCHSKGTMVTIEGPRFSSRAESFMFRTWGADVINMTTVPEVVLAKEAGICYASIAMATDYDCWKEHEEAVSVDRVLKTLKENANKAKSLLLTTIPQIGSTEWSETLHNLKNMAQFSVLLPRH
Protocol: as §1, §2
Enzymes.—The human MTAP protein was cloned into pQE32 expression vector and transformed into E. coli. Induction cultures containing 1 L (25 mg/L) and 50 μg/mL ampicillin were inoculated with 1 mL overnight grown starter-culture and incubated at 37° C. When the cultures reached an OD of ≈0.6 they were induced with 1.5 mM IPTG for 6 to 8 hours. Cells were harvested by centrifugation at 5000 rpm for 30 min, and subsequently resuspended in a buffer (20 mM imidazole, 300 mM NaCl, 0.2 mM phenylmethylsulfonyl fluoride (PMSF), 100 mM Tris, pH 8.0) containing a small amount of lysozyme to weaken the cell membrane. Cells were lysed with a French press. The insoluble material was removed by high-speed centrifugation. The cell extract was further clarified with 35% ammonium sulfate precipitation followed by high-speed centrifugation. The clarified cell extract was then applied to a 5 mL Ni-NTA column that had previously been equilibrated with the binding buffer. Further chromatographic steps were carried out by FPLC. The column was washed with 10 volumes of 50 mM imidazole, 300 mM NaCl, and 100 mM Tris, pH 8.0, and the protein was eluted with a buffer containing a 50–250 mM gradient of imidazole, 300 mM NaCl, 1 M Tris, pH 8.0. The purity of the protein was verified by running polyacrylamide gel followed by Coomassie staining. The protein was subsequently dialyzed in 50 mM NaCl, 2 mM dithiothreitol (DTT) and 50 mM Tris, pH 7.4, and was concentrated to 10 mg/mL. The purified protein was stored at −80° C. in 100 μL to 150 μL aliquots.
as §3, §4
as §5, with “This” for “Slow-Onset Inhibition and Inhibition Constants.—The kinetics for slow onset inhibition and the Ki measurement was carried out by adding a known concentration of enzyme (1–5 nM) to a reaction mixture containing a substrate concentration of 200 μM. This”
as §6, §7, §8

[1] = tested on: Lewis lung carcinoma cells; assay: Radiation sensitizing effect on Lewis lung carcinoma cells; format: cell-based; settings: 5′-methylthio-ImmA at 2 μM; 10 Gy X-ray; cells counted by Trypan Blue after 48 hrs
Protocol: Lewis lung carcinoma cells (1×10^6) were plated and allowed to adhere overnight in 2 mL of DMEL medium substituted with 10% fetal bovine serum, 1% Pen-Strep, 2.5% Na-Pyruvate, 1% non-essential amino acids in 6 well plates. 50 μM MTA, 50 μM MTA+2 μM 5′-methylthio-ImmA or 2 μM 5′-methylthio-ImmA was then added in 1 mL of the same medium as indicated. Control wells were treated with medium without any additions. This treatment was allowed to continue for 6 hours. In each experiment one set of treated cells were subjected to 10 Gy of X-ray irradiation and a control set received no irridation. Both irradiated and unirradiated cells were then cultured for another 48 hours in the presence of MTA±5′-methylthio-ImmA. Manual counting of living and dead cells was done by Trypan Blue dye exclusion following 48 hrs of growth. (Approximate doubling time for Lewis Lung cells was 24 hours.)

MTAN, sequence (P0AF12 whole entry): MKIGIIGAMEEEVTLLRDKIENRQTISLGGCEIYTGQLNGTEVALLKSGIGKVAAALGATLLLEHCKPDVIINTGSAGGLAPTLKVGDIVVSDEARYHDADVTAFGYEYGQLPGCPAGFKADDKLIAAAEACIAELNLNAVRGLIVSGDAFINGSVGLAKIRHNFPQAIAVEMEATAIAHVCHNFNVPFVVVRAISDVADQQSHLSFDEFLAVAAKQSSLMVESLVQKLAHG

CSC[C@H]1N[C@@H](c2c[nH]c3c(N)ncnc23)C(O)[C@H]1O (some centres unmarked) [5′-methylthio-ImmA]
Ki (MTAN; Ki*, equilibrium dissociation constant after slow-onset, tight binding inhibition): 77 ± 20 pM | Ki (MTAN; Ki, initial inhibition constant): 130 ± 12 pM | Ki* (MTAN; equilibrium dissociation constant after slow-onset, tight binding inhibition): in the pM range | Ki (human MTAP; MTA at 150 μM, Km=2.5 μM, read-out: Ki (FIG. 1, inhibition of MTAP at varying concentrations)): 107 pM | Ki* (human MTAP; MTAP, equilibrium dissociation constant after slow-onset, tight binding inhibition): in the pM range | Ki (human MTAP; MTAP, equilibrium dissociation constant after slow-onset, tight binding inhibition, read-out: Ki*): 90 ± 18 pM | Ki (human MTAP; MTAP, initial inhibition constant, read-out: Ki): 5000 ± 500 pM | effect on cell growth and irradiation damage (FIG. 2) [1]: acts in a similar manner to 50 μM MTA
